# Source: article PMC9930359, “Cytotoxicity of the methanol extracts and compounds of Brucea antidysenterica (Simaroubaceae) towards multifactorial drug-resistant human cancer cell lines” (BMC Complementary Medicine and Therapies, 2023)
# What was measured:
# HeLa-S3 uterine cells = tested on: HeLa-S3 uterine cells; design: method as in PMID 1800632; conditions: HeLa-S3 ref 60; cited from earlier work
# nine cancer cell lines = assay: RRA cytotoxicity, summary over the panel; assay type: cell-based, human; conditions: number out of 9 cancer cell lines
# Text: (§3) In this work, 9 cancer cell lines with various drug resistance patterns as well as AML12 hepatocytes as normal control cell line were used. […] The AML12 hepatocytes were used for the comparison of the activities of the samples with HepG2 [40]. […] The RPMI-1640 medium was used for the culture of CCRF-CEM and CEM/ADR5000 cells whilst DMEM medium was used for carcinoma cells. The culture media were supplemented (complete medium) with 10% fetal bovine serum and 1% penicillin/streptomycin (Invitrogen, Eggenstein, Germany). […] To maintain the resistance phenotype of the resistant carcinoma cell lines such as MDA-MB-231/BCRP and HCT116 p53^−/−, and U87MG.ΔEGFR cells, the complete DMEM medium containing geneticin at 800 ng/ml and 400 µg/ml, respectively were used [41, 42].
# Cells were cultured in a standard condition consisted of a humidified 5% CO2 atmosphere and an incubation temperature of 37 °C. The tested concentration ranges were 0.63—80 µg/mL for the botanicals and 0.78—100 µM for phytochemicals. The incubation time of the treated cells was 72 h, and the fluorescence was measured with Infinite M2000 Pro™ plate reader (Tecan, Crailsheim, Germany). The wavelengths used were 544 nm for the excitation and 590 nm for the emission. […] The degree of resistance (D.R.) was set as the ratio of the IC50 values of samples in the resistant cell line vs that of corresponding sensitive cell line. […]
# CCRF-CEM leukemia cells = assay: Resazurin reduction assay (RRA), cytotoxicity; assay type: cell-based; conditions: Homo sapiens, 72 h
# Text: as §3
# (§4) Cells were cultured in a standard condition consisted of a humidified 5% CO2 atmosphere and an incubation temperature of 37 °C. The tested concentration ranges were 0.63—80 µg/mL for the botanicals and 0.78—100 µM for phytochemicals. The incubation time of the treated cells was 72 h, and the fluorescence was measured with Infinite M2000 Pro™ plate reader (Tecan, Crailsheim, Germany). The wavelengths used were 544 nm for the excitation and 590 nm for the emission. […] The degree of resistance (D.R.) was set as the ratio of the IC50 values of samples in the resistant cell line vs that of corresponding sensitive cell line. The selectivity index (S.I.) was the ratio of the IC50 value of AML12 hepatocytes vs. that of HepG2 cells [13, 48].
# [1] = tested on: TE-418 osteosarcoma cells; design: method as in PMID 1800632; conditions: TE-418 ref 60; cited from earlier work
# CCRF-CEM cells [2] = assay: Mitochondrial membrane potential (MMP), JC-1 staining, flow cytometry; assay type: cell-based, human; conditions: 2 × IC50, 24 h
# Experimental: (§1) The modification of the MMP as well as the ROS levels after the application of BAL, and flavonolignan 2 at ¼ IC50, ½ IC50, IC50, and 2 × IC50 to CCRF-CEM cells (1 × 10^6) was performed by flow cytometry. DMSO was used as solvent control while valinomycin served as a positive control. The cells were incubated for 24 h and further stained for 30 min with JC-1 [45] and measured (1 × 10^4 cells) in an LSR-Fortessa FACS analyzer (Becton–Dickinson). For ROS determination, CCEF-CEM cells were similarly treated BAL, the flavonolignan 2, hydrogen peroxide (H2O2; positive control), DMSO (solvent control) as in the MMP analysis, then incubated for 24 h. They were further stained with H2DCFH-DA and measured (1 × 10^4 cells) in an LSR-Fortessa FACS analyzer.
# MDA-MB-231-pcDNA cells = assay: Resazurin reduction assay (RRA), cytotoxicity; assay type: cell-based; conditions: Homo sapiens, 72 h
# Text: as §3, §4
# [3] = tested on: S-480 colon adenocarcinoma; design: method as in PMID 1800632; conditions: S-480 ref 60; cited from earlier work
# HCT116 p53+/+ cells = assay: Resazurin reduction assay (RRA), cytotoxicity; assay type: cell-based; conditions: Homo sapiens, HCT-116, 72 h
# Text: as §3, §4
# L-1210 leukemia cells = tested on: L-1210 leukemia cells; design: method as in PMID 1800632; conditions: murine L-1210 ref 60; cited from earlier work
# [4] = tested on: MB-9812 lung cancer cells; design: method as in PMID 1800632; conditions: MB-9812 ref 60; cited from earlier work
# Tmolt3 leukemia cells = tested on: Tmolt3 leukemia cells; design: method as in PMID 1800632; conditions: Tmolt3 ref 60; cited from earlier work
# [5] = tested on: 697 pre-B acute lymphoblastic leukemia cell line; design: method as in PMID 23280566; conditions: 697 pre-B ALL ref 59; cited from earlier work
# CCRF-CEM cells [6] = assay: Apoptosis by annexin V/PI staining and flow cytometry; assay type: cell-based, human; conditions: 2 x IC50, 24 h
# Text: Afterward, apoptosis detection was undertaken with a fluorescein isothiocynate (FITC)-conjugated annexin V/PI assay kit (eBioscience™ Annexin V; Invitogen, San Diego, USA). The measurement was done using BD Accury C6 Flow Cytometer (BD Biosciences) under experimental conditions previously reported. The assays were done thrice independently with three repetitions each.
# CEM/ADR5000 cells = assay: Resazurin reduction assay (RRA), cytotoxicity; assay type: cell-based, human; conditions: for IC50: Homo sapiens, CEM/ADR5000, 72 h; for Degree of resistance (D.R.): ratio of IC50 CEM/ADR5000 vs CCRF-CEM
# Experimental: (§5) The RPMI-1640 medium was used for the culture of CCRF-CEM and CEM/ADR5000 cells whilst DMEM medium was used for carcinoma cells. The culture media were supplemented (complete medium) with 10% fetal bovine serum and 1% penicillin/streptomycin (Invitrogen, Eggenstein, Germany). […] To maintain the resistance phenotype of the resistant carcinoma cell lines such as MDA-MB-231/BCRP and HCT116 p53^−/−, and U87MG.ΔEGFR cells, the complete DMEM medium containing geneticin at 800 ng/ml and 400 µg/ml, respectively were used [41, 42].
# as §4
# U87MG.ΔEGFR cells = assay: Resazurin reduction assay (RRA), cytotoxicity; assay type: cell-based, human; conditions: for IC50: Homo sapiens, U87MG.ΔEGFR, 72 h; for Degree of resistance (D.R.): ratio of IC50 U87.MGΔEGFR vs U87.MG
# Experimental: as §5, §4
# [7] = tested on: KB nasopharynx cancer cells; design: method as in PMID 1800632; conditions: KB ref 60; cited from earlier work
# U87MG cells = assay: Resazurin reduction assay (RRA), cytotoxicity; assay type: cell-based; conditions: Homo sapiens, U-87 MG, 72 h
# Text: as §3, §4
# HepG2 cells = assay: Resazurin reduction assay (RRA), cytotoxicity; assay type: cell-based; conditions: Homo sapiens, HepG2, 72 h
# Text: as §3, §4
# MDA-MB-231-BCRP cells = assay: Resazurin reduction assay (RRA), cytotoxicity; conditions: for IC50: Homo sapiens, MDA-MB-231/BCRP, 72 h
# Experimental: as §5, §4
# HCT116 p53−/− cells = assay: Resazurin reduction assay (RRA), cytotoxicity; assay type: cell-based, human; conditions: for IC50: Homo sapiens, HCT-116, HCT116 p53−/−, 72 h; for Degree of resistance (D.R.): ratio of IC50 HCT116 p53−/− vs HCT116 p53+/+
# Experimental: as §5, §4
# [8] = tested on: caspase 9 in CCRF-CEM cells; assay: Caspase-Glo assay; assay type: cell-based, human; conditions: 2 × IC50, 6 h
# Experimental: (§2) The activity of caspases in CCRF-CEM cells treated with BAL and the flavonolignan 2 was determined by Caspase-Glo assay. […] The whole was then incubated for 6 h (standard culture conditions) and the activity of caspases was detected by spectrophotometry as previously described.
# [9] = tested on: caspase 8 in CCRF-CEM cells; assay: Caspase-Glo assay; assay type: cell-based, human; conditions: 2 × IC50, 6 h
# Experimental: as §2
# CCRF-CEM cells [10] = assay: Reactive oxygen species (ROS), H2DCFH-DA staining, flow cytometry; assay type: cell-based, human
# Experimental: as §1
# CCRF-CEM cells [11] = assay: Cell cycle distribution by flow cytometry (PI staining); assay type: cell-based, human
# Experimental: The modification of the cell cycle distribution of CCRF-CEM induced by the botanicals BAL, the flavonolignan 2, the control drug, doxorubicin, or the solvent control DMSO was determined by flow cytometry under the previously reported work conditions. BAL and compound 2 were applied to CCRF-CEM cells (1 ml; 1 × 10^6 cells) at their ¼ IC50, ½ IC50, IC50, and 2 × IC50 values. The whole was then incubated for 24 h as earlier indicated followed by the analysis of the cell cycle distribution with a BD Accury C6 Flow Cytometer (BD Biosciences, Heidelberg, Germany). Assays were performed three times in triplicates.
# SW480 colon cancer cells = tested on: SW480 colon cancer cells; design: method as in PMID 24018191; conditions: SW480 ref 61; cited from earlier work
# AML12 hepatocytes = assay: Resazurin reduction assay (RRA), cytotoxicity on normal hepatocytes; assay type: cell-based; conditions: for IC50: Mus musculus, AML12 normal hepatocytes, 72 h; for Selectivity index (S.I.): ratio of IC50 in AML12 vs IC50 in HepG2 cells
# Experimental: as §5, §4
compound,measurement,setting,value
"COc1cc([C@H]2Oc3cc(-c4cc(=O)c5c(O)cc(O)cc5o4)ccc3O[C@@H]2CO)ccc1O [Compound 2, hydnocarpin]",melting point,,261 to 263 °C
same,IC50,HeLa-S3 uterine cells,2.02 µg/mL
same,cancer cell lines with IC50 ≤ 10 μM,nine cancer cell lines,8/9
same,IC50,CCRF-CEM leukemia cells,4.28 ± 0.31 µM
same,IC50,[1],2.14 µg/mL
same,Q1: cells with undamaged (intact) MMP,CCRF-CEM cells [2],10.4%
same,Q2: cells with MMP loss,CCRF-CEM cells [2],70.5%
same,cells with disrupted MMP (Q3 and Q4),CCRF-CEM cells [2],19.1%
same,IC50,MDA-MB-231-pcDNA cells,4.07 ± 0.37 µM
same,IC50,[3],2.00 µg/mL
same,IC50,HCT116 p53+/+ cells,11.4 ± 0.98 µM
same,IC50,L-1210 leukemia cells,3.65 µg/mL
same,IC50,[4],8.18 µg/mL
same,IC50,Tmolt3 leukemia cells,32.94 µg/mL
same,IC50,[5],8.7 µM
same,Q2-LR: early apoptotic cells annexin (+)/PI (-),CCRF-CEM cells [6],9.4 ± 0.8%
same,Q2-UR: annexin V (+)/PI (+) late apoptotic or necrotic cells,CCRF-CEM cells [6],18.5 ± 1.3%
same,IC50,CEM/ADR5000 cells,3.07 ± 0.18 µM
same,Degree of resistance (D.R.),CEM/ADR5000 cells,0.72
same,IC50,U87MG.ΔEGFR cells,5.42 ± 0.44 µM
same,Degree of resistance (D.R.),U87MG.ΔEGFR cells,0.58
same,IC50,[7],1.15 µg/mL
same,IC50,U87MG cells,9.29 ± 0.73 µM
same,IC50,HepG2 cells,2.73 ± 0.19 µM
same,IC50,MDA-MB-231-BCRP cells,6.65 ± 0.24 µM
same,Degree of resistance (D.R.),MDA-MB-231-BCRP cells; ratio of IC50 MDA-MB-231-BCRP vs MDA-MB-231-pcDNA,1.63
same,IC50,HCT116 p53−/− cells,6.74 ± 0.33 µM
same,Degree of resistance (D.R.),HCT116 p53−/− cells,0.59
same,increase of activity of caspase 9,[8],2.67 fold
same,increase of activity of caspase 8,[9],2.12 fold
same,ROS levels in treated cells,"CCRF-CEM cells [10]; 1/4 × IC50, 24 h",6.00%
same,ROS levels in treated cells,"CCRF-CEM cells [10]; 2 × IC50, 24 h",49.00%
same,cells in sub-G0/G1 phase,"CCRF-CEM cells [11]; 1/4 × IC50, 24 h",3.41 ± 0.2%
same,cells in sub-G0/G1 phase,"CCRF-CEM cells [11]; 2 × IC50, 24 h",38.40 ± 2.6%
same,IC50,SW480 colon cancer cells,20.3 µM
same,IC50,AML12 hepatocytes,51.2 ± 3.2 µM
"O=c1ccc2nccc3c4ccccc4n1c23 [Compound 5, canthin-6-one]",IC50,CCRF-CEM leukemia cells,44.2 ± 3.52 µM
same,IC50,MDA-MB-231-pcDNA cells,> 100 µM
same,IC50,HCT116 p53+/+ cells,24.7 ± 2.16 µM
same,IC50,CEM/ADR5000 cells,> 100 µM
same,Degree of resistance (D.R.),CEM/ADR5000 cells,> 2.26
same,IC50,U87MG.ΔEGFR cells,21.1 ± 1.49 µM
same,Degree of resistance (D.R.),U87MG.ΔEGFR cells,1.08
same,IC50,U87MG cells,19.6 ± 1.55 µM
same,IC50,HepG2 cells,26.1 ± 1.63 µM
same,IC50,MDA-MB-231-BCRP cells,> 100 µM
same,IC50,HCT116 p53−/− cells,21 ± 1.72 µM
same,Degree of resistance (D.R.),HCT116 p53−/− cells,0.85
same,IC50,AML12 hepatocytes,> 100 µM
same,Selectivity index (S.I.),AML12 hepatocytes,> 3.83
"OO [Compound H2O2, hydrogen peroxide, reference compound]",ROS levels in treated cells,"CCRF-CEM cells [10]; 50 µM, 24 h",94.30%
"CC(C)(O)[C@@H](O)Cc1cn([C@@H]2O[C@H](CO)[C@@H](O)[C@H](O)[C@H]2O)c2ccccc12 [Compound 7, 3-(2’,3’-dihydroxy-3’-méthylbutyl)-1N-β-glucopyranosylindole]",melting point,,209 to 211 °C
same,IC50,CCRF-CEM leukemia cells,20.4 ± 0.94 µM
same,IC50,MDA-MB-231-pcDNA cells,> 100 µM
same,IC50,HCT116 p53+/+ cells,> 100 µM
same,IC50,CEM/ADR5000 cells,> 100 µM
same,Degree of resistance (D.R.),CEM/ADR5000 cells,> 4.91
same,IC50,U87MG.ΔEGFR cells,> 100 µM
same,IC50,U87MG cells,> 100 µM
same,IC50,HepG2 cells,> 100 µM
same,IC50,MDA-MB-231-BCRP cells,> 100 µM
same,IC50,HCT116 p53−/− cells,> 100 µM
same,IC50,AML12 hepatocytes,> 100 µM
"C[C@@H](O)C1CCC2C3CC=C4C[C@@H](O[C@@H]5OC[C@H](O)[C@H](O)[C@H]5O)CC[C@]4(C)C3CC[C@@]21C (stereo partly drawn) [Compound 3, (20R)-O-(3)-α-L-arabinopyranosyl-pregn-5-en-3β,20-diol]",melting point,,258 to 260 °C
same,IC50,CCRF-CEM leukemia cells,28.4 ± 1.76 µM
same,IC50,MDA-MB-231-pcDNA cells,> 100 µM
same,IC50,HCT116 p53+/+ cells,> 100 µM
same,IC50,CEM/ADR5000 cells,73.9 ± 5.32 µM
same,Degree of resistance (D.R.),CEM/ADR5000 cells,2.60
same,IC50,U87MG.ΔEGFR cells,> 100 µM
same,IC50,U87MG cells,> 100 µM
same,IC50,HepG2 cells,85.2 ± 5.7 µM
same,IC50,MDA-MB-231-BCRP cells,> 100 µM
same,IC50,HCT116 p53−/− cells,50.5 ± 3.81 µM
same,Degree of resistance (D.R.),HCT116 p53−/− cells,< 0.50
same,IC50,AML12 hepatocytes,> 100 µM
same,Selectivity index (S.I.),AML12 hepatocytes,> 1.17
